The text below walks through data of article PMC11695965 (Nature Communications, 2025).

For assay [1], the target named is T1, CkPTA (phosphotransacetylase) (Clostridium kluyveri, UniProt A5N801).
T1 sequence (A5N801 1-333): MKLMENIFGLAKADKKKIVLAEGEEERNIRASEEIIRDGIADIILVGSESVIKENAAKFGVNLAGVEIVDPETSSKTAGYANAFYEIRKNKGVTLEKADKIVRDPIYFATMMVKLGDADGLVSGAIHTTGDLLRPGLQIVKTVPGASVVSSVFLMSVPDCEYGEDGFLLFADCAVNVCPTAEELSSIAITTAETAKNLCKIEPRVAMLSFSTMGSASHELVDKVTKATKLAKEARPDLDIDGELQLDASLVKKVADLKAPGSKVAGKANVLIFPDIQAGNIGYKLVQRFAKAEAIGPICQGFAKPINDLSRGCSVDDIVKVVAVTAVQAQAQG
The assay can be described thus: acetyl-CoA formation. In kind it is biochemical.

The target in assay [2] is EcDERA (deoxyribose-5-phosphate aldolase); HSA = its T19S/G171A/V206I mutant (Escherichia coli, UniProt P0A6L0).

Where two headings read alike, the source gives them in different places.

Chain of EcDERA (deoxyribose-5-phosphate aldolase); HSA = its T19S/G171A/V206I mutant (P0A6L0 whole entry T19S/G171A/V206I): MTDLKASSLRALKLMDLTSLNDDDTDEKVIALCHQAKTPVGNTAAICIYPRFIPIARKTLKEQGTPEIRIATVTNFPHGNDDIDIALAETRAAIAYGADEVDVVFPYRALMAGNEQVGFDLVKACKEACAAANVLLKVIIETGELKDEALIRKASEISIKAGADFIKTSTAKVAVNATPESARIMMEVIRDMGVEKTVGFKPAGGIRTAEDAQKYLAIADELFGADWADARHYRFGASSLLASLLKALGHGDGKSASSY

`CC(=O)OP(=O)(O)O` [acetyl phosphate]: in assay [1], the acetyl-CoA formation result is given as “CkPTA then converted acetyl phosphate into acetyl-CoA as the output product”.

For `CC(=O)SCCNC(=O)CCNC(=O)[C@H](O)C(C)(C)COP(=O)(O)OP(=O)(O)OC[C@H]1O[C@@H](n2cnc3c(N)ncnc32)[C@H](O)[C@@H]1OP(=O)(O)O` [acetyl-CoA], the acetyl-CoA formation result in assay [1] was “CkPTA then converted acetyl phosphate into acetyl-CoA as the output product”.

With `O=C[C@H](O)[C@H](O)COP(=O)(O)O` [erythrose 4-phosphate], in assay [2] (with glycolaldehyde), the “product formation (H6P)” value was “enzyme for the condensation of glycolaldehyde and E4P to H6P”.

`O=CCO` [glycolaldehyde]: the “product formation (H6P)” value in assay [2] (with erythrose 4-phosphate) was “deoxyribose-5-phosphate aldolase (EcDERA) showing the highest activity”.
